Tested on: gastrointestinal nematodes
Test: Influence of simulated rain on reduction of nematode egg output in feces of cattle after pour-on
Format: in vivo, Cooperia, Haemonchus, Ostertagia and Trichostrongylus
Details: at all times posttreatment regardless of exposure to simulated rainfall
Description: The objective of this study is to determine the potential effect of rainfall on the efficacy of a pour-on formulation of 23-(O-methyloxime)-LL-F28249α (0.5% w/v) against gastrointestinal nematodes. Formulation 10 reported in Example 2, above, is employed for the study.
Forty-eight mixed beef breed heifers are ranked according to the average of the day −3 and day −2 fecal nematode egg counts and randomly assigned to the following groups of 6 animals each:
All cattle treated with 23-(O-methyloxime)-LL-F28249α pour-on are treated with 0.5 mg 23-(O-methyloxime)-LL-F28249α per kg of body weight. All animals exposed to simulated rain are sprayed with the equivalent of 1 inch of water for 30 minutes.
Following treatment, cattle are housed in outdoor pens which are partially covered by a three sided shed. Cattle remain outdoors during the entire posttreatment period. However, they are confined to a covered portion of the pen when it is raining or rainfall is imminent. […]
The simulated rainfall apparatus used in this trial consists of a 12 feet×12 feet pen with right angle directional spray nozzles in each corner. It is calculated that 89.75 gallons of water applied to this size pen are the equivalent of 1 inch of rain. […]
Fecal samples are taken from all animals on days 7, 14 and 21 posttreatment to evaluate nematode egg counts. The values are expressed as number of eggs per 1 g of feces.

## CO/N=C1\C[C@]2(C[C@@H]3CC(C/C=C(\C)C[C@@H](C)/C=C/C=C4\CO[C@@H]5[C@H](O)C(C)=C[C@@H](C(=O)O3)[C@]45O)O2)O[C@H](/C(C)=C/C(C)C)[C@H]1C [23-(O-methyloxime)-LL-F28249α]
  nematode egg counts (in words): significantly reduces
